Results taken from the kinase profiling compilation of Christmann-Franck et al. (2016).

Assays:
Test in all cases: KINOMEscan competition binding
Settings in all cases: compound 10.0 µM
[1] = target: IRAK3 (human) (UniProt Q9Y616)
[2] = target: SRMS (human) (UniProt Q9H3Y6)
[3] = target: FYN (human) (UniProt P06241)
[4] = target: PTK6 (human) (UniProt Q13882)
[5] = target: ACVR2B (human) (UniProt Q13705)
[6] = test system: FGFR3 (human), P22607 [G697C]
[7] = target: CDK15 (human) (UniProt Q96Q40)
Sequence of CDK15 (human) (Q96Q40 whole entry, looked up): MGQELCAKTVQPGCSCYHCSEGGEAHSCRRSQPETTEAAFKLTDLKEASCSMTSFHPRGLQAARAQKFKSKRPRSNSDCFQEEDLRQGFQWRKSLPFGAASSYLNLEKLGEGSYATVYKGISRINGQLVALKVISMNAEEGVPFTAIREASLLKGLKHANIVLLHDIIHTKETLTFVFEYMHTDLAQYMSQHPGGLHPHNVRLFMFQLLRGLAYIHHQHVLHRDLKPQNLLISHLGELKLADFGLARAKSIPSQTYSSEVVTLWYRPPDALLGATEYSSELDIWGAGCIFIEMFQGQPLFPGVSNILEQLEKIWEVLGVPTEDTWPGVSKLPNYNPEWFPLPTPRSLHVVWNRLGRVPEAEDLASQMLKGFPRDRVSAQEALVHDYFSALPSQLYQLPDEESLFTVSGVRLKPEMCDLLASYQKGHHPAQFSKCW

[8] = test system: PIK3CA (human), P42336 [M1043I]
[9] = target: FGFR1 (human) (UniProt P11362)
[10] = target: TNK1 (human) (UniProt Q13470)
[11] = target: WEE2 (human) (UniProt P0C1S8)
[12] = target: AKT2 (human) (UniProt P31751)
Sequence of AKT2 (human) (P31751 whole entry, looked up): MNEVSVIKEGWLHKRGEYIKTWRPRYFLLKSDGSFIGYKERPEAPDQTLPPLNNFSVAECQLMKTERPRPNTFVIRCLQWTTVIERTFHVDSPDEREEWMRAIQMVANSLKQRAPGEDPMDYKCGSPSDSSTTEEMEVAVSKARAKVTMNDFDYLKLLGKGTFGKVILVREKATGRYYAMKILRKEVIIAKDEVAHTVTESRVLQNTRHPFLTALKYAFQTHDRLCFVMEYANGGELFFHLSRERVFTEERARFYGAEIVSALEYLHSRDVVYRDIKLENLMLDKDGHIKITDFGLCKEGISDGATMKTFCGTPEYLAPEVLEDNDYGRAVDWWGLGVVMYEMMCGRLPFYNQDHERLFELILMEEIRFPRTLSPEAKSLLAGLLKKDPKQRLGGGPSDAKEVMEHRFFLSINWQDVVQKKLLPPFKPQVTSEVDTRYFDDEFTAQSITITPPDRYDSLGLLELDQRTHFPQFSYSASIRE

[13] = target: MYO3B (human) (UniProt Q8WXR4)
[14] = target: TLK1 (human) (UniProt Q9UKI8)
[15] = target: MINK1 (human) (UniProt Q8N4C8)
[16] = target: CASK (human) (UniProt O14936)
[17] = target: CSK (human) (UniProt P41240)
[18] = target: MAPK15 (human) (UniProt Q8TD08)
[19] = target: PIK3C2B (human) (UniProt O00750)
[20] = target: CSNK1D (human) (UniProt P48730)
[21] = target: MAP2K5 (human) (UniProt Q13163)
[22] = target: PAK2 (human) (UniProt Q13177)
[23] = target: CDKL5 (human) (UniProt O76039)
[24] = target: LIMK1 (human) (UniProt P53667)
[25] = target: DMPK (human) (UniProt Q09013)
[26] = target: EGFR (human) (UniProt P00533)
[27] = target: EPHA5 (human) (UniProt P54756)
[28] = target: KIT (human) (UniProt P10721)
Sequence of KIT (human) (P10721 whole entry, looked up): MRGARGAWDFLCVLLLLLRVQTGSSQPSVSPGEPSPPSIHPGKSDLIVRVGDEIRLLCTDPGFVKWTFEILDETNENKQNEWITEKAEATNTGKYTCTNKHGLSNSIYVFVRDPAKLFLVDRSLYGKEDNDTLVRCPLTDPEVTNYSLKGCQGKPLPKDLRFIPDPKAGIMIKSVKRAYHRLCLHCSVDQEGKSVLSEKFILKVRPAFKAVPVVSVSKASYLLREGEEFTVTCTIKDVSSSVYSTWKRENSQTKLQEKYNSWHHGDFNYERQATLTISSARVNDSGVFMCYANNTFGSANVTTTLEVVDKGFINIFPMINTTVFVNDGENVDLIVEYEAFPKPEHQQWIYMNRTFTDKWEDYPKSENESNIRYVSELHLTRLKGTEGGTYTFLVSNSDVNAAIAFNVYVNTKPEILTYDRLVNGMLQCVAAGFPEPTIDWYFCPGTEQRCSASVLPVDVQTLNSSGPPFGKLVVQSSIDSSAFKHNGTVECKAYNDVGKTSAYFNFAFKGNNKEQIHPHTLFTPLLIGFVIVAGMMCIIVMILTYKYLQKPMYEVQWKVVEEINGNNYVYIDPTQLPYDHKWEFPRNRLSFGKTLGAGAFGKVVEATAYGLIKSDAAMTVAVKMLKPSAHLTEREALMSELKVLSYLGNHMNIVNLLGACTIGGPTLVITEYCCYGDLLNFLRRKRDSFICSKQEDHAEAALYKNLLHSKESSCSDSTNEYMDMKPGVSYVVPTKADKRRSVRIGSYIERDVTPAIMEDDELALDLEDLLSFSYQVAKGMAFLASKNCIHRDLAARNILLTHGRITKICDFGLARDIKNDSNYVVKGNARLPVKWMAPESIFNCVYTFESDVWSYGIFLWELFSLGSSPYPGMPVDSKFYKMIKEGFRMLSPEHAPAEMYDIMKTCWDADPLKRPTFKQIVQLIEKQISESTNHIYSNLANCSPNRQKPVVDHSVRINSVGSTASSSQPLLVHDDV

[29] = target: BTK (human) (UniProt Q06187)
Sequence of BTK (human) (Q06187 whole entry, looked up): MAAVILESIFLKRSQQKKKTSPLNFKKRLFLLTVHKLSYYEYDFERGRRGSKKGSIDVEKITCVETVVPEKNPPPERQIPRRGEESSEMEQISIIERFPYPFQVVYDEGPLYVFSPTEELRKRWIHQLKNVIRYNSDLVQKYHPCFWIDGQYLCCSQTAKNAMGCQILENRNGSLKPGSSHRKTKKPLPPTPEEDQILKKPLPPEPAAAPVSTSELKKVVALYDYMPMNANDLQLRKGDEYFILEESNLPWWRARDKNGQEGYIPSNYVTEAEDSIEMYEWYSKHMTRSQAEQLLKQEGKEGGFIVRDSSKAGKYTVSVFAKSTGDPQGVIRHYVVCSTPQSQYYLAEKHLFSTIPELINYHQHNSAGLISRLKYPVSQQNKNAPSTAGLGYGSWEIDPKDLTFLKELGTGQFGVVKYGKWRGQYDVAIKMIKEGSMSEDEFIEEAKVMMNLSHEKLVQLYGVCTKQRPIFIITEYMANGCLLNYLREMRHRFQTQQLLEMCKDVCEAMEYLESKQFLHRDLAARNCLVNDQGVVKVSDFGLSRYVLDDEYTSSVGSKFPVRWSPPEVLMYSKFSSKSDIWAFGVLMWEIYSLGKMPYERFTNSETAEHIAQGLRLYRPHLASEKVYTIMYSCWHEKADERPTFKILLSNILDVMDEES

[30] = target: RPS6KA6 KD1 (human) (UniProt Q9UK32)
[31] = target: PIP4K2C (human) (UniProt Q8TBX8)
[32] = target: PKN2 (human) (UniProt Q16513)
Sequence of PKN2 (human) (Q16513 whole entry, looked up): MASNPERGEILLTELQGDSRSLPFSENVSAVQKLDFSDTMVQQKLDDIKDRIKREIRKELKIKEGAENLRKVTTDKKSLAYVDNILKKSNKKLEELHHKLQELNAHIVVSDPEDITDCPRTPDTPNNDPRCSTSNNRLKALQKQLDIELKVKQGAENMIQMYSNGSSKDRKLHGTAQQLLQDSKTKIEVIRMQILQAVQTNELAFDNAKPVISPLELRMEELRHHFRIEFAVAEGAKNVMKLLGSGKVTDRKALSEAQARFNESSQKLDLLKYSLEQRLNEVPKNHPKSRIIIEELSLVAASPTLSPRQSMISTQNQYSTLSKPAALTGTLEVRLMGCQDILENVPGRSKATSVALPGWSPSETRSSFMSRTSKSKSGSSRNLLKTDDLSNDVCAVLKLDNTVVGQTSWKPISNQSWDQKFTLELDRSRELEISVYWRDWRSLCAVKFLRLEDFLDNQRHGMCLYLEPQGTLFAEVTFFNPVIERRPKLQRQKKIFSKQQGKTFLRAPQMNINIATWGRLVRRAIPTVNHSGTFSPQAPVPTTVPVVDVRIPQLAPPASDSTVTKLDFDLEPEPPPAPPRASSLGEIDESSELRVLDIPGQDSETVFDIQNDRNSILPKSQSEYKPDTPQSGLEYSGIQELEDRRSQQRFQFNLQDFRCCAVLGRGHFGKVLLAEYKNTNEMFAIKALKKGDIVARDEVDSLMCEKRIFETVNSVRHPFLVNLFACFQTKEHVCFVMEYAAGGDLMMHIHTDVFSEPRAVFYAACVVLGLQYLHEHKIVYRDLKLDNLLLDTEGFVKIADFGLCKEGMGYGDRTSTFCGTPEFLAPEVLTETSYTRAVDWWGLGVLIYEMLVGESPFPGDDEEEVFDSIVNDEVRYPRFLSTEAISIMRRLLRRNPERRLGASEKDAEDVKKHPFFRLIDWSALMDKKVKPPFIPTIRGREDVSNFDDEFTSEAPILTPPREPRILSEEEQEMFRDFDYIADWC

[33] = target: VRK2 (human) (UniProt Q86Y07)
[34] = target: ZAP70 (human) (UniProt P43403)
[35] = target: AKT3 (human) (UniProt Q9Y243)
[36] = target: IKBKE (human) (UniProt Q14164)
Sequence of IKBKE (human) (Q14164 whole entry, looked up): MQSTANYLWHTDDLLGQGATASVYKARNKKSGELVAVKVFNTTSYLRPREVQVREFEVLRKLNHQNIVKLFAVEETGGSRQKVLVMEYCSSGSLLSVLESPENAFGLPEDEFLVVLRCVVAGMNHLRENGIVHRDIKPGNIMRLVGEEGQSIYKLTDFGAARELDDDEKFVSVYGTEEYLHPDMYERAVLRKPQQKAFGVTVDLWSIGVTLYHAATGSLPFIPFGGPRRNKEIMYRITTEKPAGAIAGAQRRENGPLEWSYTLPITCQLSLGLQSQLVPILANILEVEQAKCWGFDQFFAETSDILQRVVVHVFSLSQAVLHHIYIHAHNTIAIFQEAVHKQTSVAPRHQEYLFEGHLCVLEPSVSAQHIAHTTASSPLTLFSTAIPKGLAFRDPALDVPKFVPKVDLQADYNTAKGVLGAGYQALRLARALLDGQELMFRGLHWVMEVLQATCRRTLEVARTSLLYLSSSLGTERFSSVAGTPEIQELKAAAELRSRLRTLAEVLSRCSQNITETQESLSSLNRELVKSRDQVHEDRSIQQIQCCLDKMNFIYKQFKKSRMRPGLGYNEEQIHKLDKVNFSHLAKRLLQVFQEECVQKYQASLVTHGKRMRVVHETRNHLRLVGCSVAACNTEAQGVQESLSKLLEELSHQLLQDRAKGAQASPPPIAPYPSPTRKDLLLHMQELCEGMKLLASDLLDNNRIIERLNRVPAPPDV

[37] = target: TNNI3K (human) (UniProt Q59H18)
[38] = target: RPS6KA4 KD2 (human) (UniProt O75676)
Sequence of RPS6KA4 KD2 (human) (O75676 whole entry, looked up): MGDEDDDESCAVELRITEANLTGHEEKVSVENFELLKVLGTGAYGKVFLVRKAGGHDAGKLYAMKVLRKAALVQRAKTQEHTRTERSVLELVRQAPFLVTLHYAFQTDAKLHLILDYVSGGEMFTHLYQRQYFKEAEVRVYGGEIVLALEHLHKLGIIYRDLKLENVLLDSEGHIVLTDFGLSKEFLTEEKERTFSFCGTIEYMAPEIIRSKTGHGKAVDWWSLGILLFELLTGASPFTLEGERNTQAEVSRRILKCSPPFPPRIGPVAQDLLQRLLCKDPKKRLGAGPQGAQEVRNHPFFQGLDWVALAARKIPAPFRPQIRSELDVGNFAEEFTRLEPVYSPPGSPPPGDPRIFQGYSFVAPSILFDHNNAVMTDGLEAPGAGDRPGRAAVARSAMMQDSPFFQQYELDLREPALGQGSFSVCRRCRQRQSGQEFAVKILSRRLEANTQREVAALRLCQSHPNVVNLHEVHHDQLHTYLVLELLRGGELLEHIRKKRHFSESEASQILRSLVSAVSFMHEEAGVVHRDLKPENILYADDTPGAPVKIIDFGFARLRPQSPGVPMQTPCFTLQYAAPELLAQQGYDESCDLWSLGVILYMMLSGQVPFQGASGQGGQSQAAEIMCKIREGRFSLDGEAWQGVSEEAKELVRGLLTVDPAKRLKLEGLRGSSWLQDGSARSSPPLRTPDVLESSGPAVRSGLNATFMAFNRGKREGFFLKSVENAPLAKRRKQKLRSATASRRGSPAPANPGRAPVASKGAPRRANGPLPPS

[39] = target: PRKACB (human) (UniProt P22694)
[40] = target: JAK3 JH1 catalytic (human) (UniProt P52333)

Structure (SMILES) | kinase still bound, per cent of control [1] | kinase still bound, per cent of control [2] | kinase still bound, per cent of control [3] | kinase still bound, per cent of control [4] | kinase still bound, per cent of control [5] | kinase still bound, per cent of control [6] | kinase still bound, per cent of control [7] | kinase still bound, per cent of control [8] | kinase still bound, per cent of control [9] | kinase still bound, per cent of control [10] | kinase still bound, per cent of control [11] | kinase still bound, per cent of control [12] | kinase still bound, per cent of control [13] | kinase still bound, per cent of control [14] | kinase still bound, per cent of control [15] | kinase still bound, per cent of control [16] | kinase still bound, per cent of control [17] | kinase still bound, per cent of control [18] | kinase still bound, per cent of control [19] | kinase still bound, per cent of control [20] | also measured
CC1=C(C(=O)Nc2cc3cn[nH]c3cc2F)C(c2ccc(C(F)(F)F)cc2)CC(=O)N1 (stereo not drawn) | 85% | 58% | 82% | 60% | 96% | 84% | 84% | 93% | 73% | 33% | 66% | 64% | 100% | 90% | 71% | 88% | 100% | 80% | 100% | 92% | kinase still bound, per cent of control [21]: 71%; kinase still bound, per cent of control [22]: 88%; kinase still bound, per cent of control [23]: 45%; kinase still bound, per cent of control [24]: 100%; kinase still bound, per cent of control [25]: 100%; kinase still bound, per cent of control [26]: 40%; kinase still bound, per cent of control [27]: 86%; kinase still bound, per cent of control [28]: 90%; kinase still bound, per cent of control [29]: 14%; kinase still bound, per cent of control [30]: 42%; kinase still bound, per cent of control [31]: 98%; kinase still bound, per cent of control [32]: 52%; kinase still bound, per cent of control [33]: 87%; kinase still bound, per cent of control [34]: 100%; kinase still bound, per cent of control [35]: 40%; kinase still bound, per cent of control [36]: 77%; kinase still bound, per cent of control [37]: 78%; kinase still bound, per cent of control [38]: 100%
CCN1CCN(Cc2ccc(NC(=O)c3ccc(C)c(/C=C/c4cnc5[nH]ccc5c4OC)c3)cc2C(F)(F)F)CC1 | 65% | 0.7% | 1.2% | 9.6% | 62% | 2.5% | 36% | 84% | 0.1% | 1.4% | 4.8% | 48% | 40% | 100% | 2.8% | 77% | 0.75% | 67% | 100% | 38% | kinase still bound, per cent of control [21]: 0.2%; kinase still bound, per cent of control [22]: 100%; kinase still bound, per cent of control [23]: 78%; kinase still bound, per cent of control [24]: 7.7%; kinase still bound, per cent of control [25]: 57%; kinase still bound, per cent of control [26]: 0.4%; kinase still bound, per cent of control [27]: 3.6%; kinase still bound, per cent of control [28]: 0%; kinase still bound, per cent of control [29]: 0.3%; kinase still bound, per cent of control [30]: 42%; kinase still bound, per cent of control [39]: 100%; kinase still bound, per cent of control [31]: 100%; kinase still bound, per cent of control [32]: 26%; kinase still bound, per cent of control [33]: 92%; kinase still bound, per cent of control [34]: 52%; kinase still bound, per cent of control [35]: 100%; kinase still bound, per cent of control [36]: 94%; kinase still bound, per cent of control [37]: 1%; kinase still bound, per cent of control [38]: 30%; kinase still bound, per cent of control [40]: 1.1%
